Measured values taken from US20250163043A1 (TRANSTHERA SCIENCES (NANJING), INC., priority 2021, published 2025).

Experiments:
[1] = molecular target: CDK3/CycE1 (Homo sapiens, UniProt Q00526); assay: ADP-Glo kinase assay on CDK enzymatic activity, CDK3/CycE1; type: biochemical; conditions: 10 concentrations from 10 μM, 4-fold, 60 min room temperature
Outline: (§1)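 Steps: compound (10 μM top, 4-fold series) plus kinase, 10 min RT; add substrate/ATP mix, 60 min RT; ADP-Glo reagent 40 min; detection reagent 40 min; read luminescence. Inhibition referenced to AZD4573 (1 μM) and DMSO vehicle; IC50 by nonlinear fit.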

[2] = molecular target: CDK5/p25NCK (Homo sapiens, UniProt Q00535); assay: ADP-Glo kinase assay on CDK enzymatic activity, CDK5/p25NCK; type: biochemical; conditions: 10 concentrations from 10 μM, 4-fold, 60 min room temperature
Outline: as §1

[3] = molecular target: CDK2/CycA2 (Homo sapiens, UniProt P24941); assay: ADP-Glo kinase assay on CDK enzymatic activity, CDK2/CycA2; type: biochemical; conditions: 10 concentrations from 10 μM, 4-fold, 60 min room temperature
Outline: as §1

[4] = molecular target: CDK9/CycT1 (Homo sapiens, UniProt P50750); assay: ADP-Glo kinase assay on CDK enzymatic activity, CDK9/CycT1; type: biochemical; conditions: 10 concentrations from 10 μM, 4-fold, 60 min room temperature
Outline: as §1

[5] = tested on: MV-4-11 (human myelomonocytic leukemia cells); assay: CCK-8 cell proliferation assay, MV-4-11; type: cell-based; conditions: MV4-11, 24 h incubation, 11 concentrations from 5000 nM, 3-fold, read-out: MV-4-11 cell proliferation IC50 (class)
Procedure: Test samples: the compounds of the present invention, having structures shown above.
MV-4-11 (human myelomonocytic leukemia cells) and NCI-H929 (human myeloma cells).
The compounds were dissolved in DMSO and diluted 3-fold in the 96-well plate to obtain stock solutions with 11 concentration gradients. Each cell was inoculated into a 96-well plate, and the diluted compound stock solution was added to the 96-well plate to obtain a series of 11 concentration gradients of compound solutions with final concentrations of 5000 nM starting and 3-fold gradient decreasing, wherein the final DMSO content was […]. There was a medium containing 1‰ DMSO in the negative control well. The treated cells were incubated at 37° C. with 5% CO2 and 95% humidity, wherein MV-4-11 were incubated for 24 h and NCI-H929 for 72 h. After incubation was completed, each well was added with 10 μL of CCK-8 reagent, incubated for 1-3 h at room temperature and placed in the microplate reader, and the absorbance was read at 450 nm.
The inhibition rate was calculated according to the following formula: […]
ODcmpd: compound absorbance; ODpositive: average value of the absorbance of positive control without compound; ODvehicle: average value of the absorbance of solvent vehicle control.
IC50 values were fitted using GraphPad 7.0 based on inhibition rates of compounds at different concentrations.

[6] = molecular target: CDK1/CycE1 (Homo sapiens, UniProt P06493); assay: ADP-Glo kinase assay on CDK enzymatic activity, CDK1/CycE1; type: biochemical; conditions: ADP-Glo; 10 concentrations from 10 μM, 4-fold; 60 min room temperature; read-out: CDK1/CycE1/nM (IC50)
Outline: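 Compounds in 10-point 4-fold dilutions from 10 μM final, preincubated 10 min with kinase, then substrate/ATP added; 60 min reaction at room temperature. ADP-Glo luminescence read.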

Chain of CDK1/CycE1 (P06493 whole entry, species assumed): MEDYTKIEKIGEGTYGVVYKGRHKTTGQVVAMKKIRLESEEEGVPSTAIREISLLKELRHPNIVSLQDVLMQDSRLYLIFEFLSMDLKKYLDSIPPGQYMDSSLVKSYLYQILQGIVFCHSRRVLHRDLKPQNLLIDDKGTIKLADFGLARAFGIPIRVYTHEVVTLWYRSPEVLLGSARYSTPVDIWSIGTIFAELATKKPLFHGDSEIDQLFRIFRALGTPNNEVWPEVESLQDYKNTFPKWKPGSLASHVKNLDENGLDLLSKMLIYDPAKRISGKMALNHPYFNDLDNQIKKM
Chain of CDK1/CycE1 (P24864 whole entry partner, species assumed): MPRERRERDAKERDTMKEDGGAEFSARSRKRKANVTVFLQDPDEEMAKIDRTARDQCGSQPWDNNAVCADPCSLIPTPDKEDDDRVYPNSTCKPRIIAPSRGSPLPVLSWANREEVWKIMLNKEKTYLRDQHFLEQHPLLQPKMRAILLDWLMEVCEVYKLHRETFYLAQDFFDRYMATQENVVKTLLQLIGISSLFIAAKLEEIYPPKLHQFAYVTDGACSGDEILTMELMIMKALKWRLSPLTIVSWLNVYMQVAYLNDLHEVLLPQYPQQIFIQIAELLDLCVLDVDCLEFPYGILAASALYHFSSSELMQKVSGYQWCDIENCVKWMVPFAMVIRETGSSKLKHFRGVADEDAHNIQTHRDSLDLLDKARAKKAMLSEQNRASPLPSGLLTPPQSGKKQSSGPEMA
Chain of CDK3/CycE1 (Q00526 whole entry, species assumed): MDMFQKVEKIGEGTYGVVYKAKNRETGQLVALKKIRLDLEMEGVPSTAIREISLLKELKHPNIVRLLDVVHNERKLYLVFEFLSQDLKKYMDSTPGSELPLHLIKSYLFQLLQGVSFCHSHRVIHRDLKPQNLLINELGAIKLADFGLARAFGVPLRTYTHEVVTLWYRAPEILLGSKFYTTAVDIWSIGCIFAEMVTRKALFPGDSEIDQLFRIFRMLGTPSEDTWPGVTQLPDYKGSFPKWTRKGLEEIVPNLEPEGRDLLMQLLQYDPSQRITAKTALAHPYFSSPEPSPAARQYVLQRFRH
Chain of CDK3/CycE1 (P24864 whole entry partner, species assumed): as the sequence (P24864 whole entry partner, species assumed) above
Chain of CDK9/CycT1 (P50750 whole entry): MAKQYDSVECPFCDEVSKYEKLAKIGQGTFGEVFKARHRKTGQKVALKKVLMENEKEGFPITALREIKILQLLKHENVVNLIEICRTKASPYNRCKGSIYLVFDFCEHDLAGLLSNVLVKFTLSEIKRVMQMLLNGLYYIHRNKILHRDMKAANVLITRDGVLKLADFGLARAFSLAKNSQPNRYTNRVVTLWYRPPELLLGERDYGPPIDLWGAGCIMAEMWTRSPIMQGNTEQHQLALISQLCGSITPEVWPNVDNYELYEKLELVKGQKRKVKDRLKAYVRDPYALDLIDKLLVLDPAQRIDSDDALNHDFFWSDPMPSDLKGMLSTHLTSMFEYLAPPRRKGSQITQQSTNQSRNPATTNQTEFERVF
Chain of CDK9/CycT1 (O60563 whole entry partner): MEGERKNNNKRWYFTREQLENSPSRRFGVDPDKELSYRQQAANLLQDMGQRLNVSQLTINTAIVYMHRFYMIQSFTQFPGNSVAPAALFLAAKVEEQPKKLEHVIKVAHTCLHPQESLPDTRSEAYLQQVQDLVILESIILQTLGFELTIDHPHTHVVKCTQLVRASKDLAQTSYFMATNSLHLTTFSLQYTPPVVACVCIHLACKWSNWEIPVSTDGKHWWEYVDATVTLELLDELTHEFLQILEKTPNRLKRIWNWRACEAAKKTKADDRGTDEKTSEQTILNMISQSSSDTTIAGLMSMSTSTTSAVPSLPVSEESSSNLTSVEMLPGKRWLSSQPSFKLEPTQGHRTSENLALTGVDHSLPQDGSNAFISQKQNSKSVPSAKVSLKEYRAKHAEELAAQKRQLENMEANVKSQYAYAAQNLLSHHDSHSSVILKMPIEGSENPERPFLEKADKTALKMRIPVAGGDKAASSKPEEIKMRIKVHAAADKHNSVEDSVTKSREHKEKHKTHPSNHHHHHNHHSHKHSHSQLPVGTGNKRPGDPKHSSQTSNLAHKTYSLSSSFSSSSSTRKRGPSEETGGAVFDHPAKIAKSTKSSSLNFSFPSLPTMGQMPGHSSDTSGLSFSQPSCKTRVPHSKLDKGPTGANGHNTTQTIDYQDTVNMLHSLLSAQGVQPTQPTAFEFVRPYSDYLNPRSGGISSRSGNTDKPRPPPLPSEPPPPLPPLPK
Chain of CDK5/p25NCK (Q00535 whole entry, species assumed): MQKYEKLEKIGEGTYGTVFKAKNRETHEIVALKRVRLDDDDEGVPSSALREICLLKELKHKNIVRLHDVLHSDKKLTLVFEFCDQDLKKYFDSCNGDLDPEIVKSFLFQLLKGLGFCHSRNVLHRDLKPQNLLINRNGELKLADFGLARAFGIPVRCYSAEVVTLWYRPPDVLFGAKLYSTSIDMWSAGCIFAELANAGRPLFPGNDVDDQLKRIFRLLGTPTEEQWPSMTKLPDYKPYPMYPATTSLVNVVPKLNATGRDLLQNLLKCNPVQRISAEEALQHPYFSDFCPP
Chain of CDK5/p25NCK (Q15078 99-307 partner limits assumed, species assumed): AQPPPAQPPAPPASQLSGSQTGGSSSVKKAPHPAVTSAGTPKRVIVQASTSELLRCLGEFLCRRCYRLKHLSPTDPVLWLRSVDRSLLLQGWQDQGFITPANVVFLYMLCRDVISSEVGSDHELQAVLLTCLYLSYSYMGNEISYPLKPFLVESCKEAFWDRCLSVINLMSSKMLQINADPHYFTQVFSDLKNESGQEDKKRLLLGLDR

SMILES | IC50 [1] [nM] | IC50 [2] [nM] | IC50 [3] [nM] | IC50 [4] [nM] | IC50 [5] [nM] | IC50 [6] [nM]
CC(=O)N[C@@H]1CCC[C@H](C(=O)Nc2cc3c(NC(C)(C)C)nc(C#N)cc3cn2)C1 [Compound 15, (1S,3R)-3-acetamido-N-(5-(tert-butylamino)-7-cyano-2,6-naphthyridin-3-yl)cyclohexane-1-carboxamide] | 273 | 770 | 182 | 1 | 400 to 1000 | –
CC(=O)N[C@@H]1CCC[C@H](C(=O)Nc2cc3c(NC4CC4)nc(C#N)cc3cn2)C1 [Compound 16, (1S,3R)-3-acetamido-N-(7-cyano-5-(cyclopropylamino)-2,6-naphthyridin-3-yl)cyclohexane-1-carboxamide] | 951 | 2500 | 1460 | 20 | > 1000 | –
CC(=O)N[C@@H]1CCC[C@H](C(=O)Nc2cc3c(NC4(C)CC4)nc(C#N)cc3cn2)C1 [Compound 17, (1S,3R)-3-acetamido-N-(7-cyano-5-((1-methylcyclopropyl)amino)-2,6-naphthyridin-3-yl)cyclohexane-1-carboxamide] | 750 | 664 | 279 | 4 | 400 to 1000 | –
CC(=O)N[C@@H]1CCC[C@H](C(=O)Nc2cc3c(NC(CCO)CCO)nc(C#N)cc3cn2)C1 [Compound 18, (1S,3R)-3-acetamido-N-(7-cyano-5-((1,5-dihydroxypentan-3-yl)amino)-2,6-naphthyridin-3-yl)cyclohexane-1-carboxamide] | > 10000 | > 10000 | 3370 | 15 | > 1000 | –
CC(=O)N[C@@H]1CCC[C@H](C(=O)Nc2cc3c(N4CC[C@@H](O)C4)nc(C#N)cc3cn2)C1 [Compound 19, (1S,3R)-3-acetamido-N-(7-cyano-5-((R)-3-hydroxypyrrolidin-1-yl)-2,6-naphthyridin-3-yl)cyclohexane-1-carboxamide] | 1470 | 6080 | 2370 | 26 | > 1000 | –
CC(=O)N[C@@H]1CCC[C@H](C(=O)Nc2cc3c(N4CC[C@@H](N)C4)nc(C#N)cc3cn2)C1 [Compound 20, (1S,3R)-3-acetamido-N-(5-((R)-3-aminopyrrolidin-1-yl)-7-cyano-2,6-naphthyridin-3-yl)cyclohexane-1-carboxamide] | 1750 | 4320 | 2150 | 11 | > 1000 | –
CC(=O)N[C@@H]1CCC[C@H](C(=O)Nc2cc3c(N4CC[C@@](C)(O)C4)nc(C#N)cc3cn2)C1 [Compound 22, (1S,3R)-3-acetamido-N-(7-cyano-5-((R)-3-hydroxy-3-methylpyrrolidin-1-yl)-2,6-naphthyridin-3-yl)cyclohexane-1-carboxamide] | 1910 | > 10000 | 4510 | 17 | 400 to 1000 | –
CC(=O)N[C@@H]1CCC[C@H](C(=O)Nc2cc3c(N4CCC(F)(F)CC4)nc(C#N)cc3cn2)C1 [Compound 23, (1S,3R)-3-acetamido-N-(7-cyano-5-(4,4-difluoropiperidin-1-yl)-2,6-naphthyridin-3-yl)cyclohexane-1-carboxamide] | 5650 | > 10000 | 3870 | 38 | > 1000 | –
CC(=O)N[C@H]1CCC[C@H](C(=O)Nc2cc3c(NC(C)C)nc(C#N)cc3cn2)C1 [Compound 25, (1S,3S)-3-acetamido-N-(7-cyano-5-(isopropylamino)-2,6-naphthyridin-3-yl)cyclohexane-1-carboxamide] | 602 | 1210 | 521 | 12 | 400 to 1000 | –
CC(C)Nc1nc(C#N)cc2cnc(N[C@H]3CCC[C@@H](O)C3)cc12 [Compound 41, 7-(((1S,3R)-3-hydroxycyclohexyl)amino)-1-(isopropylamino)-2,6-naphthyridine-3-carbonitrile] | 90 | – | – | 6 | > 1000 | –
CC(C)Nc1nc(C#N)cc2cnc(N[C@H]3CCC(=O)NC3)nc12 [Compound 106, (S)-8-(isopropylamino)-2-((6-oxopiperidin-3-yl)amino)pyrido[3,4-d]pyrimidine-6-carbonitrile] | 29 | – | – | 4 | 400 to 1000 | 26
N#Cc1cc2cnc(N[C@H]3CCCNC3)cc2c(C2CCCCC2)n1 [Compound 193, (S)-1-cyclohexyl-7-(piperidin-3-ylamino)-2,6-naphthyridine-3-carbonitrile] | – | – | 679 | 5 | 400 to 1000 | 398
CC(C)Oc1nc(C#N)cc2cnc(N[C@H]3C[C@@H](N)C3)cc12 [Compound 195, 7-(((1s,3s)-3-aminocyclobutyl)amino)-1-isopropoxy-2,6-naphthyridine-3-carbonitrile] | – | – | 540 | 2 | 400 to 1000 | 14
C[C@]1(N)C[C@H](Nc2cc3c(NC4CC4)nc(C#N)cc3cn2)C1 [Compound 210, 7-((trans)-3-amino-3-methylcyclobutyl)amino-1-(cyclopropylamine)-2,6-naphthyridine-3-carbonitrile] | – | – | – | 12 | 400 to 1000 | –

The remaining lines, values ahead:

IC50 [1] [nM] | IC50 [2] [nM] | IC50 [3] [nM] | IC50 [4] [nM] | IC50 [5] [nM] | IC50 [6] [nM] | SMILES
– | – | – | 9 | 400 to 1000 | – | CC(C)(C)Nc1nc(C(F)F)cc2cnc(N[C@H]3[C@@H]4CNC[C@@H]43)nc12 [Compound C4, N^2-((1R,5S,6s)-3-azabicyclo[3.1.0]hexan-6-yl)-N^8-(tert-butyl)-6-(difluoromethyl)pyrido[3,4-d]pyrimidine-2,8-diamine]
– | – | – | 50 | 400 to 1000 | – | CC(C)Nc1nc(C#N)cc2cnc(N[C@@H]3CCCCNC3)nc12 [Compound C5, (R)-2-(azepan-3-ylamino)-8-(isopropylamino)pyrido[3,4-d]pyrimidine-6-carbonitrile]
– | – | – | 8 | > 1000 | – | CC(C)Nc1nc(C#N)cc2cnc(N[C@]3(C)C[C@@H](O)C3)nc12 [Compound C10, 2-(((1r,3r)-3-hydroxy-1-methylcyclobutyl)amino)-8-(isopropylamino)pyrido[3,4-d]pyrimidine-6-carbonitrile]
– | – | – | 10 | 400 to 1000 | – | CC(C)(C)Nc1nc(C(N)=O)cc2cnc(N[C@H]3C[C@H](N)C3)nc12 [Compound C19, 2-(((1r,3r)-3-aminocyclobutyl)amino)-8-(tert-butylamino)pyrido[3,4-d]pyrimidine-6-carboxamide]
– | – | – | 19 | > 1000 | – | CC(C)Nc1nc(C#N)cc2cnc(N[C@]3(C)C[C@@H](N)C3)nc12 [Compound C27, 2-(((1r,3r)-3-amino-1-methylcyclobutyl)amino)-8-(isopropylamino)pyrido[3,4-d]pyrimidine-6-carbonitrile]
– | – | 35 | 3 | 400 to 1000 | 51 | CC(C)Nc1nc(C#N)cc2cnc(N[C@H]3C[C@@H](CO)C3)nc12 [Compound C29, 2-(((1s,3s)-3-(hydroxymethyl)cyclobutyl)amino)-8-(isopropylamino)pyrido[3,4-d]pyrimidine-6-carbonitrile]
– | – | – | 19 | > 1000 | – | CC(=O)N1CCN([C@H]2C[C@@H](Nc3ncc4cc(C#N)nc(NC(C)C)c4n3)C2)CC1 [Compound C33, 2-(((1s,3s)-3-(4-acetylpiperazin-1-yl)cyclobutyl)amino)-8-(isopropylamino)pyrido[3,4-d]pyrimidine-6-carbonitrile]
